Assay results as given in patent US20250205207A1, “MATRIX TABLETS OF DEXPRAMIPEXOLE AND METHODS OF MANUFACTURING AND USE THEREOF” (Areteia Therapeutics, Inc., priority 2023, published 2025).

Tests used:
[1] = during tablet manufacture and storage
[2] = across the physiological pH range; cited from earlier work
dopamine receptors = conditions: compared to pramipexole; cited from earlier work
[3] = tested on: eosinophil counts in human blood and tissues; conditions: cited from earlier work

chiral purity over time [1] | SMILES | solubility [2] | affinity for dopamine receptors (dopamine receptors) | effect on eosinophil counts [3]
did not change over time | CCCN[C@@H]1CCc2nc(N)sc2C1 | freely soluble | – | –
– | CCCN[C@@H]1CCc2nc(N)sc2C1 [dexpramipexole, (6R)-2-amino-4,5,6,7-tetrahydro-6-(propylamino)benzothiazole] | – | greatly reduced when compared to pramipexole | selectively and significantly lower eosinophil counts
